ChEMBL document CHEMBL1133330, “N-benzylpyroglutamyl-L-phenylalanine derivatives as VCAM/VLA-4 antagonists” (Bioorg Med Chem Lett, 2000)

Tests used:
Integrin alpha-4/beta-1 [1] = target: T1, Integrin alpha-4/beta-1 (Homo sapiens, UniProt P05556+P13612); assay: Antagonistic activity against VLA-4 (derived from ramos cells) binding to recombinant human VCAM by ELISA assay; assay type: cell-based
Integrin alpha-4/beta-1 [2] = target: T1, Integrin alpha-4/beta-1; assay: Antagonistic activity against VLA-4 binding to recombinant human VCAM by ramos cell assay; assay type: cell-based

T1 sequence (P05556 whole entry): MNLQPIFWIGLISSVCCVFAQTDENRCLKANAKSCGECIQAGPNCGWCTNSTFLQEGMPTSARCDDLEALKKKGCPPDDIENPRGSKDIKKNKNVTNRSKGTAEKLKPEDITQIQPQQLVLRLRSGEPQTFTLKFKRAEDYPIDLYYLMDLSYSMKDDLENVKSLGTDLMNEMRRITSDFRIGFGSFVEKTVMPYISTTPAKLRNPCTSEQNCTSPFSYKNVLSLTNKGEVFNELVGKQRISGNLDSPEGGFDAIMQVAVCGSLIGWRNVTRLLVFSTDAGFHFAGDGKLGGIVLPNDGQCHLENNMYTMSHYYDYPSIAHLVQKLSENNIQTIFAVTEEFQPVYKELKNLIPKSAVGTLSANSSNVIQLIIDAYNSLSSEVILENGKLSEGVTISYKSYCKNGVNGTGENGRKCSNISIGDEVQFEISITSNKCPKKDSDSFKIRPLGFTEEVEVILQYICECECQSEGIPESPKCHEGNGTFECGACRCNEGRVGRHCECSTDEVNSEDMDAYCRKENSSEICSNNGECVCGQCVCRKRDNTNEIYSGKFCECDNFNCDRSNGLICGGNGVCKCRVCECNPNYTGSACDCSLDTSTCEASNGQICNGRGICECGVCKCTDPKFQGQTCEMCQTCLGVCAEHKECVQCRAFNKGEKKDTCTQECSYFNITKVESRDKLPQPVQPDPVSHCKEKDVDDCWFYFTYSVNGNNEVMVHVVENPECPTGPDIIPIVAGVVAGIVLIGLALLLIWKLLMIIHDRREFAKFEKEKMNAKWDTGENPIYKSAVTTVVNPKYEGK
T1 sequence (P13612 whole entry): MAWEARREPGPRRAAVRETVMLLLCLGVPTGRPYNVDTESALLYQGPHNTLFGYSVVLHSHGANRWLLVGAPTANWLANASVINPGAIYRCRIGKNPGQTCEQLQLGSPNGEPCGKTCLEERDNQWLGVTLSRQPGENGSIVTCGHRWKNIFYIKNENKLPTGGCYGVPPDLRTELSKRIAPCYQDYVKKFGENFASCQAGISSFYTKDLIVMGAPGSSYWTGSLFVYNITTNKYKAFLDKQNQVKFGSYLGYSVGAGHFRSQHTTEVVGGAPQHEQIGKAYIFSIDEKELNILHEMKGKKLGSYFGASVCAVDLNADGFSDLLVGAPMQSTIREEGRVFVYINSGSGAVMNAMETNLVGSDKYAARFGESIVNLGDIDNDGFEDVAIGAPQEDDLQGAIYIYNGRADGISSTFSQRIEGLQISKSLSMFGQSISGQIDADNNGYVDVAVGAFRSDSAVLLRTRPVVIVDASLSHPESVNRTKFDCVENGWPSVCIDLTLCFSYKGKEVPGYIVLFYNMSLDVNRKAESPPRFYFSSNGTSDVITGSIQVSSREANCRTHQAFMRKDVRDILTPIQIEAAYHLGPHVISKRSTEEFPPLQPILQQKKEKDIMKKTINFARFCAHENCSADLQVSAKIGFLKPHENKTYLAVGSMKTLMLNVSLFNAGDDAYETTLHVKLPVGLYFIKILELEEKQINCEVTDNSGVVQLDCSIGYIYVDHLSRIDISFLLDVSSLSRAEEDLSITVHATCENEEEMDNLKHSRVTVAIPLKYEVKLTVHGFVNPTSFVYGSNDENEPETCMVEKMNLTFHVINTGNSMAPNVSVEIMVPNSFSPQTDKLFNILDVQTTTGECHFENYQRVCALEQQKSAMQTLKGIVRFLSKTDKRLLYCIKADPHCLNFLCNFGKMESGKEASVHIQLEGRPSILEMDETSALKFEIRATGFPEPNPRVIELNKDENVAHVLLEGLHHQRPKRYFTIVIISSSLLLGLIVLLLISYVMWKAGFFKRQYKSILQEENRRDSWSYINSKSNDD

SMILES | IC50 (Integrin alpha-4/beta-1 [1]) | IC50 (Integrin alpha-4/beta-1 [2])
Cc1ccc([N+](=O)[O-])c(C(=O)Nc2ccc(C[C@H](NC(=O)C3CCC(=O)N3Cc3ccccc3)C(=O)O)cc2)c1 (stereo partly drawn) | 0.74 nM | 77 nM
O=C(Nc1ccc(C[C@H](NC(=O)C2CCC(=O)N2Cc2ccccc2)C(=O)O)cc1)c1ccc(F)cc1C(F)(F)F (stereo partly drawn) | 0.75 nM | 28 nM
Cc1ccc([N+](=O)[O-])cc1C(=O)Nc1ccc(C[C@H](NC(=O)C2CCC(=O)N2Cc2ccccc2)C(=O)O)cc1 (stereo partly drawn) | 0.26 nM | 11 nM
O=C(O)[C@H](Cc1ccc([N+](=O)[O-])cc1)NC(=O)[C@@H]1CCC(=O)N1Cc1ccccc1 | 560 nM | –
[N-]=[N+]=NCc1ccc(C[C@H](NC(=O)[C@@H]2CCC(=O)N2Cc2ccccc2)C(=O)O)cc1 | 74 nM | –
O=C(O)[C@H](Cc1ccc(NS(=O)(=O)c2ccc([N+](=O)[O-])cc2)cc1)NC(=O)[C@@H]1CCC(=O)N1Cc1ccccc1 | 17 nM | 16000 nM
CC(=O)N[C@@H](Cc1ccc(O)cc1)C(=O)Nc1ccc(C[C@H](NC(=O)[C@@H]2CCC(=O)N2Cc2ccccc2)C(=O)O)cc1 | 8.2 nM | 2100 nM
O=C(O)[C@H](Cc1ccc2ccccc2c1)NC(=O)[C@@H]1CCC(=O)N1Cc1ccccc1 | 59 nM | –
Cc1ccc(C(=O)Nc2ccc(C[C@H](NC(=O)C3CCC(=O)N3Cc3ccccc3)C(=O)O)cc2)c(Cl)n1 (stereo partly drawn) | 2.4 nM | 33 nM
COc1ccc(C(=O)Nc2ccc(C[C@H](NC(=O)C3CCC(=O)N3Cc3ccccc3)C(=O)O)cc2)c(OC)n1 (stereo partly drawn) | 2.4 nM | 102 nM
O=C(Nc1ccc(C[C@H](NC(=O)C2CCC(=O)N2Cc2ccccc2)C(=O)O)cc1)c1c(Cl)cccc1Cl (stereo partly drawn) | 0.37 nM | 12 nM
NS(=O)(=O)c1ccc(C(=O)Nc2ccc(C[C@H](NC(=O)C3CCC(=O)N3Cc3ccccc3)C(=O)O)cc2)cc1 (stereo partly drawn) | 3.5 nM | 1060 nM
O=C(Nc1ccc(C[C@H](NC(=O)C2CCC(=O)N2Cc2ccccc2)C(=O)O)cc1)c1cc(F)c(F)cc1F (stereo partly drawn) | 1.6 nM | 127 nM
O=C(O)[C@H](Cc1cccc2ccccc12)NC(=O)[C@@H]1CCC(=O)N1Cc1ccccc1 | 230 nM | –
CC1CCC(C[C@H](NC(=O)[C@@H]2CCC(=O)N2Cc2ccccc2)C(=O)O)CC1 (stereo partly drawn) | 42500 nM | –
O=C(O)[C@H](Cc1ccc(COc2ccc([N+](=O)[O-])cc2)cc1)NC(=O)[C@@H]1CCC(=O)N1Cc1ccccc1 | 32 nM | –
O=C(Nc1ccc(C[C@H](NC(=O)C2CCC(=O)N2Cc2ccccc2)C(=O)O)cc1)c1cccnc1O (stereo partly drawn) | 4 nM | 1850 nM
O=C(NCc1ccc(C[C@H](NC(=O)[C@@H]2CCC(=O)N2Cc2ccccc2)C(=O)O)cc1)c1cccnc1 | 53 nM | –
O=C(O)[C@H](Cc1ccc(CCc2ccccc2)cc1)NC(=O)[C@@H]1CCC(=O)N1Cc1ccccc1 | 38 nM | –
O=C(Nc1ccc(C[C@H](NC(=O)C2CCC(=O)N2Cc2ccccc2)C(=O)O)cc1)c1cc(C(F)(F)F)ccc1C(F)(F)F (stereo partly drawn) | 1.1 nM | 54 nM

SMILES | IC50 (Integrin alpha-4/beta-1 [1]) | IC50 (Integrin alpha-4/beta-1 [2])
O=C(Nc1ccc(C[C@H](NC(=O)C2CCC(=O)N2Cc2ccccc2)C(=O)O)cc1)c1ccccc1[N+](=O)[O-] (stereo partly drawn) | 0.87 nM | 33 nM
CC(=O)N[C@H](Cc1ccc(O)cc1)C(=O)Nc1ccc(C[C@H](NC(=O)[C@@H]2CCC(=O)N2Cc2ccccc2)C(=O)O)cc1 | 5.3 nM | 1900 nM
O=C(O)[C@H](Cc1ccc(C#Cc2ccccc2)cc1)NC(=O)[C@@H]1CCC(=O)N1Cc1ccccc1 | 53 nM | –
N#Cc1cccc(C(=O)Nc2ccc(C[C@H](NC(=O)C3CCC(=O)N3Cc3ccccc3)C(=O)O)cc2)c1 (stereo partly drawn) | 4.6 nM | 260 nM
O=C(Nc1ccc(C[C@H](NC(=O)C2CCC(=O)N2Cc2ccccc2)C(=O)O)cc1)c1ccc(Cl)cc1[N+](=O)[O-] (stereo partly drawn) | 0.37 nM | 7 nM
O=C(O)[C@H](Cc1ccc2c(c1)OCO2)NC(=O)[C@@H]1CCC(=O)N1Cc1ccccc1 | 220 nM | –
N#Cc1ccc(C[C@H](NC(=O)[C@@H]2CCC(=O)N2Cc2ccccc2)C(=O)O)cc1 | 1000 nM | –
O=C(Nc1ccc(C[C@H](NC(=O)[C@@H]2CCC(=O)N2Cc2ccccc2)C(=O)O)cc1)c1ccccc1 | 6.3 nM | 310 nM
O=C(Nc1ccc(C[C@H](NC(=O)C2CCC(=O)N2Cc2ccccc2)C(=O)O)cc1)c1ccccn1 (stereo partly drawn) | 3.6 nM | 260 nM
COc1ccc([N+](=O)[O-])cc1C(=O)Nc1ccc(C[C@H](NC(=O)C2CCC(=O)N2Cc2ccccc2)C(=O)O)cc1 (stereo partly drawn) | 0.82 nM | 28 nM
O=C(Nc1ccc(C[C@H](NC(=O)C2CCC(=O)N2Cc2ccccc2)C(=O)O)cc1)c1ccnc2ccccc12 (stereo partly drawn) | 1.4 nM | 80 nM
O=C(Nc1ccc(C[C@H](NC(=O)[C@@H]2CCC(=O)N2Cc2ccccc2)C(=O)O)cc1)c1ccc([N+](=O)[O-])cc1 | 2.2 nM | 560 nM
O=C(O)[C@H](Cc1ccc(/C=C/c2ccc([N+](=O)[O-])cc2)cc1)NC(=O)[C@@H]1CCC(=O)N1Cc1ccccc1 | 90 nM | –
COc1ccc(-c2cccnc2C(=O)Nc2ccc(C[C@H](NC(=O)C3CCC(=O)N3Cc3ccccc3)C(=O)O)cc2)cc1 (stereo partly drawn) | 0.88 nM | 29 nM
O=C(O)[C@H](Cc1ccc(CO)cc1)NC(=O)[C@@H]1CCC(=O)N1Cc1ccccc1 | 152 nM | –
CC(=O)N[C@@H](Cc1ccc(O)cc1)C(=O)NCc1ccc(C[C@H](NC(=O)[C@@H]2CCC(=O)N2Cc2ccccc2)C(=O)O)cc1 | 20 nM | –
O=C(O)[C@H](Cc1ccccc1)NC(=O)[C@@H]1CCC(=O)N1Cc1ccccc1 | 460 nM | –
O=C(O)[C@H](Cc1ccc(NS(=O)(=O)c2cccc(C(F)(F)F)c2)cc1)NC(=O)[C@@H]1CCC(=O)N1Cc1ccccc1 | 20 nM | 26000 nM
COc1ccc(C[C@H](NC(=O)[C@@H]2CCC(=O)N2Cc2ccccc2)C(=O)O)cc1 | 160 nM | –
O=C(O)[C@H](Cc1ccc(OCc2ccc([N+](=O)[O-])cc2)cc1)NC(=O)[C@@H]1CCC(=O)N1Cc1ccccc1 | 18 nM | –
